Numbers after ± are expanded uncertainties.
Assay: xn = mol fraction of the nth substance listed
Settings: Liquid, Vibrating tube method

C=CC [propene] + CC(C)O
Settings	mass density [kg/m3]
325.09 K, 5370.7 kPa, x1 = 0.2011	709.32 ± 0.74
325.09 K, 5883.5 kPa, x1 = 0.2011	709.98 ± 0.75
325.09 K, 6336.2 kPa, x1 = 0.2011	710.58 ± 0.75
325.09 K, 6788.4 kPa, x1 = 0.2011	711.17 ± 0.75
325.09 K, 7346.6 kPa, x1 = 0.2011	711.9 ± 0.75
325.09 K, 7879.3 kPa, x1 = 0.2011	712.57 ± 0.75
325.09 K, 8392.5 kPa, x1 = 0.2011	713.18 ± 0.75
325.09 K, 8985.2 kPa, x1 = 0.2011	713.89 ± 0.76
325.09 K, 9587.7 kPa, x1 = 0.2011	714.65 ± 0.76
325.13 K, 1747.5 kPa, x1 = 0.6478	573.29 ± 0.62
325.13 K, 2151.8 kPa, x1 = 0.6478	574.52 ± 0.63
325.13 K, 2607.5 kPa, x1 = 0.6478	575.84 ± 0.63
325.13 K, 3022.1 kPa, x1 = 0.6478	577 ± 0.64
325.13 K, 3422.7 kPa, x1 = 0.6478	578.16 ± 0.64
325.13 K, 3826.3 kPa, x1 = 0.6478	579.23 ± 0.64
325.13 K, 4289 kPa, x1 = 0.6478	580.41 ± 0.64
325.13 K, 4682.5 kPa, x1 = 0.6478	581.48 ± 0.65
325.13 K, 5094.6 kPa, x1 = 0.6478	582.53 ± 0.65
325.13 K, 5524.8 kPa, x1 = 0.6478	583.59 ± 0.65
325.13 K, 5972.2 kPa, x1 = 0.6478	584.68 ± 0.66
325.13 K, 6431 kPa, x1 = 0.6478	585.75 ± 0.66
325.13 K, 6923.3 kPa, x1 = 0.6478	586.94 ± 0.66
325.13 K, 7433.5 kPa, x1 = 0.6478	588.03 ± 0.67
325.13 K, 7935 kPa, x1 = 0.6478	589.22 ± 0.67
325.13 K, 8459.9 kPa, x1 = 0.6478	590.39 ± 0.67
325.13 K, 9024 kPa, x1 = 0.6478	591.62 ± 0.68
325.13 K, 9558.5 kPa, x1 = 0.6478	592.78 ± 0.68
350.12 K, 2332.3 kPa, x1 = 0.5201	576.59 ± 0.63
350.12 K, 2731.4 kPa, x1 = 0.5201	577.92 ± 0.63
350.12 K, 2992.4 kPa, x1 = 0.5201	578.85 ± 0.64
350.12 K, 3218 kPa, x1 = 0.5201	579.68 ± 0.64
350.12 K, 3506.1 kPa, x1 = 0.5201	580.58 ± 0.64
350.12 K, 3765.6 kPa, x1 = 0.5201	581.46 ± 0.64
350.12 K, 4225.5 kPa, x1 = 0.5201	582.95 ± 0.65
350.12 K, 4550.6 kPa, x1 = 0.5201	583.87 ± 0.65
350.12 K, 4824.4 kPa, x1 = 0.5201	584.73 ± 0.65
350.12 K, 5103.7 kPa, x1 = 0.5201	585.64 ± 0.65
350.12 K, 5399.3 kPa, x1 = 0.5201	586.54 ± 0.65
350.12 K, 5715.5 kPa, x1 = 0.5201	587.44 ± 0.66
350.12 K, 5999.5 kPa, x1 = 0.5201	588.29 ± 0.66
350.12 K, 6303.9 kPa, x1 = 0.5201	589.18 ± 0.66
350.12 K, 6632.8 kPa, x1 = 0.5201	590.1 ± 0.66
350.12 K, 6975.5 kPa, x1 = 0.5201	591.05 ± 0.67
350.12 K, 7280 kPa, x1 = 0.5201	591.94 ± 0.67
350.12 K, 7641.3 kPa, x1 = 0.5201	592.87 ± 0.67
350.12 K, 7963.5 kPa, x1 = 0.5201	593.76 ± 0.67
350.12 K, 8312 kPa, x1 = 0.5201	594.68 ± 0.68
350.12 K, 8762.4 kPa, x1 = 0.5201	595.82 ± 0.68
350.12 K, 9211 kPa, x1 = 0.5201	596.88 ± 0.68
350.12 K, 9622.9 kPa, x1 = 0.5201	597.92 ± 0.69
350.18 K, 1639.5 kPa, x1 = 0.2011	677.13 ± 0.71
350.18 K, 2070 kPa, x1 = 0.2011	677.93 ± 0.71
350.18 K, 2446.2 kPa, x1 = 0.2011	678.64 ± 0.71
350.18 K, 2689 kPa, x1 = 0.6478	531.01 ± 0.6
350.18 K, 2924.3 kPa, x1 = 0.2011	679.5 ± 0.71
350.18 K, 3126.3 kPa, x1 = 0.6478	533.02 ± 0.61
350.18 K, 3271.4 kPa, x1 = 0.2011	680.17 ± 0.72
350.18 K, 3675.3 kPa, x1 = 0.2011	680.86 ± 0.72
350.18 K, 3686.2 kPa, x1 = 0.6478	535.68 ± 0.61
350.18 K, 3914.3 kPa, x1 = 0.6478	536.74 ± 0.62
350.18 K, 4058.4 kPa, x1 = 0.2011	681.6 ± 0.72
350.18 K, 4203.2 kPa, x1 = 0.6478	537.97 ± 0.62
350.18 K, 4446.8 kPa, x1 = 0.2011	682.32 ± 0.72
350.18 K, 4484.6 kPa, x1 = 0.6478	539.15 ± 0.62
350.18 K, 4738.5 kPa, x1 = 0.6478	540.5 ± 0.62
350.18 K, 4791.3 kPa, x1 = 0.2011	682.93 ± 0.72
350.18 K, 5023.4 kPa, x1 = 0.6478	541.63 ± 0.62
350.18 K, 5171.9 kPa, x1 = 0.2011	683.6 ± 0.72
350.18 K, 5321.2 kPa, x1 = 0.6478	542.86 ± 0.63
350.18 K, 5557.4 kPa, x1 = 0.2011	684.26 ± 0.73
350.18 K, 5614 kPa, x1 = 0.6478	543.95 ± 0.63
350.18 K, 5938.9 kPa, x1 = 0.6478	545.1 ± 0.63
350.18 K, 6002 kPa, x1 = 0.2011	684.96 ± 0.73
350.18 K, 6268.4 kPa, x1 = 0.6478	546.35 ± 0.64
350.18 K, 6430.2 kPa, x1 = 0.2011	685.69 ± 0.73
350.18 K, 6622.1 kPa, x1 = 0.6478	547.76 ± 0.64
350.18 K, 6978.6 kPa, x1 = 0.6478	548.98 ± 0.64
350.18 K, 7071.2 kPa, x1 = 0.2011	686.73 ± 0.73
350.18 K, 7362 kPa, x1 = 0.6478	550.27 ± 0.65
350.18 K, 7570.5 kPa, x1 = 0.2011	687.62 ± 0.73
350.18 K, 7736.5 kPa, x1 = 0.6478	551.56 ± 0.65
350.18 K, 7944.1 kPa, x1 = 0.2011	688.25 ± 0.74
350.18 K, 8126.2 kPa, x1 = 0.6478	552.91 ± 0.65
350.18 K, 8386.8 kPa, x1 = 0.2011	688.92 ± 0.74
350.18 K, 8525.5 kPa, x1 = 0.6478	554.11 ± 0.66
350.18 K, 8826.8 kPa, x1 = 0.2011	689.6 ± 0.74
350.18 K, 8979.8 kPa, x1 = 0.6478	555.58 ± 0.66
350.18 K, 9279 kPa, x1 = 0.2011	690.38 ± 0.74
350.18 K, 9488 kPa, x1 = 0.6478	557.04 ± 0.66
350.18 K, 9779.6 kPa, x1 = 0.2011	691.08 ± 0.74
350.18 K, 9989.8 kPa, x1 = 0.6478	558.59 ± 0.67

Settings	mass density [kg/m3]
325.09 K, x1 = 0.2011	703.01 ± 0.73
325.13 K, x1 = 0.6478	573.24 ± 0.62
350.12 K, x1 = 0.5201	575.99 ± 0.62
350.18 K, x1 = 0.2011	676.38 ± 0.7
350.18 K, x1 = 0.6478	530.66 ± 0.59

Source: the NIST ThermoML archive (doi:10.1021/je800017j)
